{"source": "patent US6468509B2", "about": "“Sunscreen composition containing sol-gel microcapsules” (Sol-Gel Technologies Ltd., priority 1999, dated 2002)", "key": {"yeast strain, XD83": {"test_system": "yeast strain, XD83", "assay": "Phototoxicity test based on survival of yeast under simulated sunlight", "assay_type": "cell-based", "settings": "simulated sunlight 13 mW/cm^2", "procedure": "The phototoxicity tests are based on the survival of a yeast strain, XD83. A single colony of yeast is inoculated into growth medium, and harvested during the exponential growth. The cells are suspended at a known concentration in a phosphate buffer, to afford a uniform population of cells. The cells are illuminated with simulated sunlight (13 mW/cm^2) in the absence or presence of test compounds with continous stirring. Samples are taken at increasing times (0, 10, 20, 30 minutes of illumination). The samples are analyzed semi-quantitatively, by applying two dilutions of the sample as small droplets (10 μl) to the surface of nutrient agar plates, and incubated at 37° C. for 48 hours. Patches of growth are found around the droplet. It can be easily seen when growth has been decreased. Sunscreen samples are introduces as 1000 μM concentration of the major UVB sunscreen active ingredient."}, "supercoiled plasmid DNA": {"test_system": "supercoiled plasmid DNA", "settings": "positive controls at saturation concentrations; cited from earlier work"}}}
{"smiles": "CCCCC(CC)COC(=O)c1ccc(N(C)C)cc1", "note": "(stereo not drawn) [Padimate-O, 2-Ethylhexyl N,N-Dimethyl-p-aminobenzoate]", "values": [{"measurement": "phototoxic effect on the growth of the yeast cell", "setting": "yeast strain, XD83; positive controls", "result": "strong phototoxic effect"}, {"measurement": "Phototoxicity", "setting": "yeast strain, XD83; yeast XD83, 0-30 minutes illumination, 1000 μM of major UVB sunscreen active ingredient", "result": "Clearly toxic"}, {"measurement": "strand breaks on DNA when illuminated in vitro", "setting": "supercoiled plasmid DNA", "result": "inflict strand breaks on DNA"}]}
